In PubChem BioAssay (NCI):
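Values below derive from 48-hour exposures of cells grown in 96-well plates, with endpoints linearly interpolated between the two concentrations bracketing the appropriate inhibition level. The concentration for full growth arrest is given as TGI.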

Experiments:
Experiment in all cases: NCI-60 cell line screen, 48 h
[1] = tested on: U251 CNS
[2] = tested on: SK-MEL-5 melanoma
[3] = tested on: MCF7 breast
[4] = tested on: OVCAR-5 ovarian
[5] = tested on: UACC-257 melanoma
[6] = tested on: MDA-N
[7] = tested on: HCC-2998 colon
[8] = tested on: HS 578T breast
[9] = tested on: BT-549 breast
[10] = tested on: PC-3 prostate
[11] = tested on: CCRF-CEM leukemia
[12] = tested on: SNB-75 CNS
[13] = tested on: K-562 leukemia
[14] = tested on: UO-31 renal
[15] = tested on: CAKI-1 renal
[16] = tested on: NCI-H460 lung

| SMILES | TGI [1] [µM] | TGI [2] [µM] | TGI [3] [µM] | TGI [4] [µM] | TGI [5] [µM] | TGI [6] [µM] | TGI [7] [µM] | TGI [8] [µM] | TGI [9] [µM] | TGI [10] [µM] | TGI [11] [µM] | TGI [12] [µM] | TGI [13] [µM] | TGI [14] [µM] | TGI [15] [µM] | TGI [16] [µM] |
| --- | --- | --- | --- | --- | --- | --- | --- | --- | --- | --- | --- | --- | --- | --- | --- | --- |
| Cc1ccsc1/C=N/NC1=NCCN1 | > 100 | > 100 | > 100 | > 100 | > 100 | > 100 | > 100 | > 100 | > 100 | > 100 | > 100 | > 100 | > 100 | > 100 | > 100 |  |
| Cc1ccc(S(=O)(=O)N(CC(O)COc2ccccc2)c2c(F)c(F)cc(F)c2F)cc1 (stereo not drawn) | 48.8 | 30.8 | 32.7 | 76.3 |  | 35.7 | 53.5 | 50.8 | 48.7 | 45 | 93.6 | 42.6 |  | 41.3 | 37.1 | 35.3 |
| N/C(=N\N=C\c1cc2ccccc2s1)c1cnccn1 | > 100 | > 100 | > 100 | > 100 | > 100 | > 100 |  | > 100 | > 100 | > 100 | > 100 | 79.3 | > 100 | > 100 | > 100 | > 100 |
| NC(Cc1ccc(O)cn1)C(=O)NC(C(=O)O)c1ccccc1 (stereo not drawn) | > 100 | > 100 | > 100 | > 100 | > 100 | > 100 | > 100 | > 100 | > 100 | > 100 | > 100 | > 100 | > 100 | > 100 | > 100 | > 100 |
| COc1cc(C2CC(C)(N3CCOCC3)Oc3cc4c(cc32)OCO4)cc(OC)c1OC (stereo not drawn) | > 100 | 1.54 | > 100 | > 100 | > 100 | 0.439 | 2.11 | > 56.2 | > 100 | > 100 |  |  | > 100 | > 100 | 72.1 | > 100 |
| Cc1ccc(S(=O)(=O)NC(=O)Nc2c(S(N)(=O)=O)cc(S(N)(=O)=O)c(Cl)c2Cl)cc1 | > 100 | > 100 | > 100 | > 100 | > 100 | > 100 | > 100 | > 100 | > 100 | > 100 | > 100 |  | > 100 | > 100 | > 100 | > 100 |
| O=[N+]([O-])c1cc(C2(N3CCCCC3)CCCCC2)sc1Br | 19.1 | 18.7 | 8.6 | 38.2 | 4.51 | 23.3 | 3.41 | > 58.5 | 24.3 | 13.1 | 7.33 |  | 14.1 | 24.6 | 15.6 | 29.5 |
| COC(=O)C1OC(O[C@H]2CC[C@]3(C)[C@H]4CC=C5[C@@H]6CC(C)(C)CC[C@]6(C(=O)OC)CC[C@@]5(C)[C@]4(C)CC[C@H]3C2(C)C)C(O)C(O)C1O (stereo partly drawn) | 25.1 | 32.2 | 29.2 | 27.7 | 35.4 | 30.9 | 20.3 | 46.8 | 32.1 | 28.7 | 23.2 | 31.1 | 46.3 | 33.4 | 21.8 | 25.7 |
| CC(C)C[S+]1C2=C([O-])CC(C)(C)CC2=Nc2ccccc21 (stereo not drawn) | > 100 | > 100 | > 100 | > 100 | > 100 | > 100 | > 100 | > 100 | > 100 | > 100 | > 100 | > 100 | > 100 | > 100 | > 100 | > 100 |
| CCOC(=O)Oc1cc2ccsc2c2c1c1ccccc1n2C(=O)OCC | > 100 | > 100 | > 100 | > 100 | > 100 | > 100 |  | > 100 | > 100 | > 100 | > 100 | > 100 | > 100 | 60.8 | > 100 | 86.1 |
| CN(C(=O)[C@H](NC(=O)OCc1ccccc1)c1ccccc1)C1CCCCC1N1CCCC1 (stereo partly drawn) | > 100 | 41.2 | > 100 | > 100 | 63.2 | > 100 |  | 77.2 | > 100 | > 100 | > 100 | > 100 | > 100 | > 100 | > 100 | > 100 |
| Nc1nc(Cl)cc(NCC2(CO)CCCCC2)n1 | > 100 | > 100 | > 100 | > 100 | > 100 | > 100 |  | > 100 | > 100 | > 100 | > 100 | > 100 | > 100 | > 100 | > 100 | > 100 |
| COc1ccccc1N1CCN(CCCCNC(=O)c2ccc([N+](=O)[O-])o2)CC1 | 24.6 | 18.7 | 22.2 | 33.1 | 13.2 | 13.6 | 5.71 | 41 | 14.7 | 39.8 | 58.2 |  | > 60.5 | 23.2 | 40.5 | 12.5 |
| CC12NC(=C(C#N)C#N)C(C#N)=C3NC(N)=C(C#N)C(=C31)Oc1ccccc12 (stereo not drawn) | > 100 | > 22.9 | > 100 | > 100 | > 100 | > 31.6 | > 100 | > 100 | > 100 | > 100 | > 100 | > 100 | > 100 | > 100 | > 100 | > 100 |
| CC(=O)Nc1ccc(NC(=O)CC(=O)Nc2ccc(NC(C)=O)cc2)cc1 | > 100 | > 100 | > 100 |  | > 100 | > 100 | 36.7 | > 100 | > 100 | > 100 | > 100 |  | > 100 | > 100 | > 100 | > 100 |
| CN1C(=O)c2ccccc2C(O)(c2ccccc2)C1(O)c1ccccc1 (stereo not drawn) | > 100 | > 100 |  | > 100 | > 100 | > 100 | > 100 | > 100 | > 100 | > 100 | > 100 | > 100 | > 100 | > 100 | > 100 | > 100 |
| COC(=O)[C@H](CNC(=O)/C=C/c1ccc(OC(C)=O)c(OC(C)=O)c1)NC(=O)/C=C/c1ccc(OC(C)=O)c(OC(C)=O)c1 | > 100 | > 100 | > 100 | > 100 | > 100 | > 100 | > 100 | > 100 | > 100 | > 100 | > 100 | > 100 | > 100 |  | > 100 | > 100 |
| O=S(=O)(O)c1ccc2c(N=Nc3cccc4ccccc34)c(O)ccc2c1 | > 100 | > 100 |  | > 100 | > 100 | > 100 |  | > 100 | > 100 | > 100 | > 100 | > 100 | > 100 | > 100 | > 100 |  |
| CCO/C(O)=C(/C(=N)N1CCOCC1)C(=O)Nc1cccc(C(F)(F)F)c1 | > 100 |  | > 100 | > 100 | > 100 | > 100 | > 100 | > 100 | > 100 | > 100 | > 100 | > 100 | > 100 |  | > 100 | > 100 |
| CN(C)c1ccc(/C=C/C(=O)c2cc(C(C)(C)C)c(O)c(C(C)(C)C)c2)cc1 | 5.79 | 16.5 | > 100 | > 30.2 |  | 0.69 | 3.67 | > 100 | > 100 | > 100 | > 25.7 | 0.856 | > 100 | > 100 | > 58.5 | 2.39 |
| COc1ccc(C=Nc2ccc(-c3nc4ccccc4s3)cc2)cc1OC | > 100 | 30.8 |  | > 100 | 61 | 99 | 40 | > 100 | > 100 | 69.9 | 55 | 75.7 | > 100 | > 100 | > 100 | 67.6 |
| Cc1ccc(Nc2c3c(c(C#N)c4nc5ccccc5n24)CCCC3)cc1 | > 100 | 23.4 | > 100 | 95 | 55 | > 100 | 94.9 | > 100 | > 100 | 87.2 | 31.6 |  | > 100 | 65.6 | > 100 | > 100 |
| CC[C@H](C)[C@H](NC(=O)N(CCC#N)CCN(CCN(C(=O)N[C@@H](Cc1ccccc1)C(=O)OC)c1ccccc1)C(=O)N[C@H](C(=O)OC)C(C)C)C(=O)OC | 36.1 | 38.4 | 74.6 | 57.3 | 29 | 31.7 | 39.5 | 86.6 | 44.7 | 47.7 | 56.1 | 43.1 |  | 33.8 | 35.3 |  |
| CC(=N/NC(=S)N1CCCCCC1)/C(C)=N\NC(=S)N1CCCCCC1 | 5.73 | 10.8 | > 25.1 | > 23.5 | 13.7 | > 100 | 18.6 | 11.8 | 11 | 23.8 |  | 10.9 | > 100 | 54.3 | 12.4 | 31.4 |
| Cc1ccc(C2(O)c3ccccc3C(=O)N(C)C2(O)c2ccc(C)cc2)cc1 (stereo not drawn) | 40.1 | > 100 | > 100 | > 100 | > 100 | > 100 | > 100 | 46.9 | > 100 | > 100 | 39.3 |  | > 100 | > 100 | > 100 | 75.8 |
| COC(CNC(=O)CNC(=O)c1ccc(C(F)(F)F)cc1)OC | > 100 | > 100 | > 100 | > 100 | > 100 | > 100 |  | > 100 | > 100 | > 100 | > 100 | > 100 | > 100 | > 100 | > 100 | > 100 |
| CN1C(=O)N(C)C2(CCN(CC(CC3OCCO3)c3ccc(F)cc3)CC2)C1=O (stereo not drawn) | > 100 | > 100 | > 100 | > 100 | > 100 | > 100 |  | > 100 | > 100 | > 100 | > 100 | > 100 | > 100 | > 100 | > 100 |  |
| COc1ccc(-c2nc(-c3ccc(OC)cc3)n(-c3ccccc3)n2)cc1 | > 100 | > 100 | > 100 | > 100 | > 100 | > 100 |  | > 100 | > 100 | > 100 | > 100 | > 100 |  | > 100 | > 100 | > 100 |
| C/C=C/CC(C(=O)OCC)(N(C)C(=O)OC(C)(C)C)S(=O)(=O)c1ccc(C)cc1 (stereo not drawn) | > 100 | > 100 | > 100 | > 100 | > 100 | 48 |  | > 100 | > 100 | > 100 | > 100 |  | > 100 | > 100 | > 100 |  |
| CCCNC1=C2C[C@@H](C)C[C@@H](OC)[C@@H](OC(=O)CCCN)[C@H](C)/C=C(\C)[C@@H](OC(N)=O)[C@H](OC)/C=C\C=C(/C)C(=O)NC(=CC1=O)C2=O | > 35 | 24.5 | 31.4 | 30.5 | 12 | 30.1 | 38.1 | 60.9 | 29.4 | 26.9 | 6.8 |  | > 20.9 | 36.1 | 38.5 | 34.1 |
